This data set is described as follows: in vitro. The following applies: human, hela cells, % viability.

On to `N#CCCCN1CCC(Oc2cncc(OCCN3CCOCC3)n2)C1` (stereo not drawn) [CBK084495], for which the viability at 28.5 h, 10 µM was 103%.
On the same count and under the same terms, next, `O=S(=O)(Cc1ccc(Br)cc1)c1cc2c(N3CCNCC3)nccc2s1` [CBK045688C]: 87.4%; `COc1cccc(N(CC(=O)Nc2ccccc2Cl)S(=O)(=O)c2ccc(C)cc2)c1` [CBK263791]: 93.4%.
For the compound `Cc1nn2c(CN(C(=O)COc3ccccc3)c3ccccc3)nnc2c2ccccc12` [CBK268036], the viability at 28.5 h, 10 µM came out at 83.4%.
The same measure, in the same setting: next, `Cc1cc(C)nc(CCNCc2c(C(C)C)nn(C)c2N(C)C)n1` [CBK305159]: 112%; `NS(=O)(=O)c1ccc(Nc2nc(-c3ccccc3)c(CC(=O)O)s2)cc1` [CBK131899]: 91.6%; `COc1ccc(-c2ccc(OC)cc2C(=O)Nc2cccc(-n3cccn3)c2)cc1` [CBK285818]: 94.6%.
Same read-out and setting: with `O=C(O)c1cc(C(=O)O)c2ccccc2n1` [CBK262304] the figure was 82.1%; with `C(=N\Nc1ccc2nn(-c3ccccc3)nc2c1)/c1c[nH]c2ccccc12` [CBK261064], 91.6%; with `O=S(=O)(N1CCCCC1)N1CCN(CC(O)COc2ccc(-c3ccccc3)cc2)CC1` (stereo not drawn) [CBK269370], 94.9%.
`CCCN(CCCc1ccccc1)C1Cc2cc(OC)c(OC)cc2C1` [CBK017596C]: the viability at 28.5 h, 10 µM (bulk resorufin, single well) was 96.6%.
Consider `Nc1ncc(-c2cncnc2)nc1NC1CC1` [CBK063869], for which the viability at 28.5 h, 10 µM amounted to 101%.
Take `Cc1cc2ncc3c(n2n1)CC1CCC3N1C(=O)c1ccco1` (stereo not drawn) [CBK284379]: the viability at 28.5 h, 10 µM is 78.1%.
On to `Cc1nnc(SCC(=O)NNC(=O)c2cccs2)[nH]1` [CBK266879], for which the viability at 28.5 h, 10 µM came out at 93.7%.
On the same count and under the same terms, with `Cc1cc(NC(=O)C2CCN(C)CC2)c2ccccc2n1` [CBK122730] the figure was 91.1%; with `CS(=O)(=O)Nc1nnc(SCC(=O)Nc2cccc([N+](=O)[O-])c2)s1` [CBK045536], 102%; with `N#Cc1ccc(-c2cc(NCCc3ccncc3)ncn2)cc1` [CBK037787], 98.1%.
With `COc1ccc(C)cc1S(=O)(=O)n1cc2c3c(cccc31)CN(C(=O)CN(C)C)C2` [CBK155549T], the viability at 28.5 h, 10 µM worked out at 93.3%.
On the same count and under the same terms, next, `O=C1Nc2ccccc2/C1=C/c1ccc(-c2cccc(C(=O)O)c2)o1` [CBK077952]: 89.4%.
Regarding `Cc1nnc(CN(C)C2CCN(Cc3ccc4c(c3)CCC4)C2)n1C` (stereo not drawn) [CBK304450], the viability at 28.5 h, 10 µM came to 104%.
Turning to `COc1ccc(-c2noc(CSc3nc4ccccc4c(=O)n3-c3ccccc3)n2)cc1OC` [CBK268667], the viability at 28.5 h, 10 µM amounted to 100%.
Regarding `O=C(c1cc2c(F)cccc2[nH]1)N1CCC(Oc2cccnc2)CC1` [CBK281468], the viability at 28.5 h, 10 µM was 103%.
As to `O=C(c1ccco1)N1CCN(c2ccc(-c3cccc(Cl)c3Cl)cn2)CC1` [CBK037737], the viability at 28.5 h, 10 µM worked out at 95.4%.
For the compound `COc1cccc(C(=O)N2CCC[C@@H](N)[C@@H]2c2ccccc2F)c1` [CBK283457], the viability at 28.5 h, 10 µM was determined as 88.1%.
The same measure, in the same setting: next, `N#CCCN(C(=O)NCc1ccc(F)cc1)C1CCCCC1` [CBK156372]: 86.5%; `CC(=O)NCC1CCCN(Cc2c[nH]nc2-c2c(F)cccc2F)C1` (stereo not drawn) [CBK306382]: 99.6%.
Take `N#Cc1cccc(C(=O)N2CCC3(CCN(C(=O)c4cc(F)c(F)cc4F)C3)C2)c1` (stereo not drawn) [CBK131387]: the viability at 28.5 h, 10 µM is 97.2%.
Still for that read-out and setting: with `CCOc1ccc(Nc2nc(-c3ccc(C)cc3C)c(CC(=O)O)s2)cc1` [CBK264187] the figure was 62.5%; with `O=C(CC1NCCNC1=O)Nc1cccc(Cl)c1` (stereo not drawn) [CBK266454], 105%.
Same read-out and setting: with `O=C(CCS(=O)(=O)Cc1ccccc1)n1nnc2ccccc21` [CBK268324] the figure was 99.4%; with `Cc1cc(OCC(=O)N2CCNC(=O)C2)c2c(C)c(C)c(=O)oc2c1` [CBK307624], 94.7%.
Still for that read-out and setting: with `COc1ccc(Sc2nc3ccccc3nc2C(F)(F)F)cc1OC` [CBK093779] the figure was 85%; with `COCC1CN(C(=O)Nc2nnc(Cc3ccc(C)cc3)s2)CCO1` (stereo not drawn) [CBK306278], 83.3%; with `CC(C)c1ccc(CN2CCC3(CC2)CN(CCO)c2ccccc23)cc1` [CBK122708], 93.4%.
Regarding `Cc1cccc(-c2ncc(NC(=O)c3ccccn3)nc2-c2ccc(N)cc2)c1` [CBK036694], the viability at 28.5 h, 10 µM is 93.3%.
On the same count and under the same terms, with `c1csc(-c2cn3ccnc3c(NC3CC3)n2)c1` [CBK066712] the figure was 108%; with `CCN(Cc1ccncc1)C(=O)NCc1c(Cl)cccc1Cl` [CBK155144], 107%; with `C(=C/c1ccccc1)/C=N/c1ccc2nc(-c3ccc(/N=C/C=C/c4ccccc4)cc3)[nH]c2c1` [CBK261656], 87.9%.
The same measure, in the same setting: next, `O=C(c1cccc(F)c1)N1CCN(Cc2ccccn2)CC1` [CBK263023]: 88.5%; `Cn1cc(-c2nccnc2OCCc2cccs2)cn1` [CBK107066]: 95%.
On the same count and under the same terms, next, `CN(C)S(=O)(=O)N(CC(=O)N1CCN(Cc2ccccc2)CC1)c1ccccc1` [CBK268423]: 112%; `O=C(Nc1ccccc1[N+](=O)[O-])C(c1ccccc1)N1CCOCC1` (stereo not drawn) [CBK269390]: 94%.
Take `CCCc1ncc(C[n+]2ccccc2C)c(N)n1` [CBK024255C]: the viability at 28.5 h, 10 µM was determined as 96.1%.
Still for that read-out and setting: next, `c1ccc2c(Sc3cncc(N4CCCC4)n3)cccc2c1` [CBK089594]: 88.2%; `COc1ccc(C2c3c(-c4cc(C)c(C)cc4O)n[nH]c3C(=O)N2Cc2cccnc2)cc1OC` (stereo not drawn) [CBK268846]: 106%; `CS(=O)(=O)c1ccc(-c2ccc(C(=O)N3CCN(C(=O)c4ccco4)CC3)cn2)cc1` [CBK160190]: 95.2%.
Still for that read-out and setting: next, `CC[C@H]1CN(C(=O)C2CC2)CC[C@H]1CC(=O)N(C)CC#N` [CBK289132]: 85.9%; `O=C(O)CCNC1CC(=O)N(Cc2ccccc2)C1=O` (stereo not drawn) [CBK287246]: 99%.
In the case of `Cc1ccc(-n2ncc(C(=O)N3CCc4ccccc4C3)c2NC(=O)c2ccco2)cc1C` [CBK267207], the viability at 28.5 h, 10 µM came out at 100%.
On the same count and under the same terms, with `O=C(CSc1ncccn1)Nc1sc2c(c1C(=O)Nc1ccccc1)CCCC2` [CBK265939] the figure was 93%.
The same measure, in the same setting: with `COc1ccccc1CNCCc1ccc(S(N)(=O)=O)cc1` [CBK269852C] the figure was 99.7%.
On the same count and under the same terms, with `O=C(N[C@@H](Cc1ccc(OCc2ccc(Cl)cc2Cl)cc1)C(=O)O)C1CCCC1` [CBK017610] the figure was 82.9%.
On to `Cc1ccc([N+](=O)[O-])cc1S(=O)(=O)Nc1ccc(O)c(Sc2nc3ccccc3s2)c1` [CBK266936], for which the viability at 28.5 h, 10 µM is 97.6%.
For the compound `CSCC(=O)N[C@H]1CCN2C(=O)N(c3cccc(C(C)=O)c3)C(=O)[C@@H]2C1` [CBK289546], the viability at 28.5 h, 10 µM is 90.6%.
The same measure, in the same setting: with `C=C(C)Cn1c(SC(C)C)nnc1-c1ccccc1Cl` [CBK200079] the figure was 99.9%; with `Cc1ccccc1CN1CC[C@@H]2[C@H](C1)[C@@H](c1ccc(F)cc1)CN2C(=O)c1cccs1` [CBK285546], 86.8%.
Take `C/C(=N\NC(=O)c1nc(-c2ccccc2)cc(-c2ccccc2)n1)c1ccc(F)cc1` [CBK262826]: the viability at 28.5 h, 10 µM amounted to 110%.
With `CCCc1c(C)nc2c(OC)cccc2c1SCCC(=O)O` [CBK263890], the viability at 28.5 h, 10 µM stood at 122%.
On the same count and under the same terms, with `O=C(O)c1ccc(S(=O)(=O)Nc2nnc(C(F)(F)F)s2)cc1` [CBK062023] the figure was 91.5%.
Still for that read-out and setting: with `Nc1nc(CSc2nnc(Cc3ccc([N+](=O)[O-])cc3)n2-c2ccccc2)cs1` [CBK267408] the figure was 93.5%.
Same read-out and setting: next, `CCCC(NC(=O)c1cccc(-n2cnnc2)c1)c1cccs1` (stereo not drawn) [CBK282745]: 102%; `Cc1cc(CN2CCCC2)cc(C)c1O` [CBK028736C]: 96.3%.
Consider `O=C(COc1cccnc1)NCc1ccc(-c2csnn2)cc1` [CBK149312], for which the viability at 28.5 h, 10 µM stood at 93.1%.
With `O=S(=O)(CCSc1nc2ccccc2s1)c1nc2ccccc2s1` [CBK026908], the viability at 28.5 h, 10 µM was 92.4%.
Still for that read-out and setting: with `COc1ccccc1CN(CCN(C)C)C(=O)Cc1c(C)[nH]c(=O)[nH]c1=O` [CBK286343] the figure was 94.2%; with `OC(CN(c1ccccc1)c1ccccc1)Cn1cnc2ccccc21` (stereo not drawn) [CBK261417], 86.8%; with `O=C(CSc1nnc(C2CC2)[nH]1)Nc1ccc(SC(F)F)cc1` [CBK295302], 101%.
Take `O=C(N1CCCCCC1)N1CCN(S(=O)(=O)N2CCOCC2)CC1` [CBK268681]: the viability at 28.5 h, 10 µM was 105%.
The same measure, in the same setting: next, `COc1ccc([C@@]23CC[C@@H](NC(=O)Nc4ccon4)C[C@@H]2N(C)CC3)cc1OC` [CBK051069T]: 97%; `CC1CCc2nc3ncn(CC(=O)NC4CC4)c(=O)c3cc2C1` (stereo not drawn) [CBK294401]: 88.3%.
Same read-out and setting: with `CCOC(=O)CN1CCC(Oc2nccnc2OCCN2CCOCC2)CC1` [CBK082929] the figure was 103%.
On the same count and under the same terms, with `CCN(CC(=O)N1CCN(C)CC1)S(=O)(=O)c1cc(Cl)ccc1Cl` [CBK269297] the figure was 104%; with `COCCC(=O)N[C@H]1CC[C@]2(C)CCC([C@H](C)C(=O)N3CCC(C)CC3)[C@H](O)[C@H]2[C@@H]1C` (stereo partly drawn) [CBK289451], 103%; with `CN(C)c1ccc(CNC(=O)Cn2nc(C(=O)O)c3ccccc3c2=O)cc1` [CBK295330], 105%.
In the case of `Cn1nc(-c2cccs2)cc1[C@H]1CN2CC[C@H]1C[C@@H]2CNC(=O)Nc1ccccc1` [CBK289104], the viability at 28.5 h, 10 µM came to 89%.
On the same count and under the same terms, with `O=C(CN1C(=O)c2ccccc2C1=O)OCC(=O)N1c2ccccc2Sc2ccccc21` [CBK264701] the figure was 91.8%; with `Cc1c(CN2CCC(N(C)CCN(C)C)CC2)oc2ccccc12` [CBK282038], 86.1%.
The same measure, in the same setting: next, `CC(C)c1n[nH]c(C2CN(Cc3nc4c(F)cccc4[nH]3)CCO2)n1` (stereo not drawn) [CBK305225]: 98.8%.

The record behind these values is paper PMC12040169 (PLOS Biology, 2025).
